Experimental data from ChEMBL document CHEMBL4616640, “Discovery of novel pyrrole derivatives as potent agonists for the niacin receptor GPR109A” (Bioorg Med Chem Lett, 2020).

Test: AUC (0 to 7 hrs) in rat at 10 mg/kg, po
Assay type: ADME, organism-based
Set-up: dose 10 mg/kg, time < 7 hr, route oral
Settings: in vivo

AUC(0-t) at 7 h: 630 ng·h/mL
SMILES: CCCCn1cc(NC(=O)CCc2nc(-c3ccc(O)cn3)no2)c(C(=O)O)c1
